Results from US20040180941A1, “3-(1-[3-(1,3-Benzothiazol-6-yl)propylcarbamoyl]cycloalkyl)propanoic acid derivatives as NEP inhibitors” (Pfizer Inc, priority 2003, published 2004).

Tests used:
[1] = molecular target: T1, NEP (neutral endopeptidase EC.3.4.24.11), native enzyme isolated from kidneys (Homo sapiens, UniProt P08473); assay: Assay of NEP peptidase activity (fluorogenic peptide substrate), IC50 determination; assay type: biochemical; details: read-out: activity against NEP expressed as an IC50
T1 construct: NEP is isolated from kidneys following the method described by Kenny and Booth; from tissue
T1 sequence (P08473 whole entry): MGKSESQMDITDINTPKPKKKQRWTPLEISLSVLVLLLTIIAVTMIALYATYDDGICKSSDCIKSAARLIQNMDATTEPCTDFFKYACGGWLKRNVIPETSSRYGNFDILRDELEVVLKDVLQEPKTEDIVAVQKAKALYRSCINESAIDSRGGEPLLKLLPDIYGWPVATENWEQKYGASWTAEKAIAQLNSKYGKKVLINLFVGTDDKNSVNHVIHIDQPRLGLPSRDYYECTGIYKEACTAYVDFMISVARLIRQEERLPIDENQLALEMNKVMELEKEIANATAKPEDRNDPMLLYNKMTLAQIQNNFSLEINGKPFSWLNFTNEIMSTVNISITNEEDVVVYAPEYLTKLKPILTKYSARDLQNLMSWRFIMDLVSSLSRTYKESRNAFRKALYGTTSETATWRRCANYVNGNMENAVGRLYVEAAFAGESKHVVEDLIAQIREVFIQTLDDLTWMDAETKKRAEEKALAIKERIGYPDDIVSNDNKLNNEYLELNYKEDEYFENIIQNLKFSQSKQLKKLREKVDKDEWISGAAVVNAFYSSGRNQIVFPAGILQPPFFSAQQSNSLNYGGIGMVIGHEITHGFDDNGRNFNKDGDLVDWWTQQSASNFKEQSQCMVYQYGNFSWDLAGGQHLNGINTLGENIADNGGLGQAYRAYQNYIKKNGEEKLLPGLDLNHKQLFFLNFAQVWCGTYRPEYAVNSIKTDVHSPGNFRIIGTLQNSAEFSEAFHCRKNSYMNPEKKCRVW
Protocol: Production of Native NEP Enzyme:
NEP is isolated from kidneys following the method described by Kenny and Booth (Booth, A. G. & Kenny, A. J. (1974) Biochem. J. 142, 575-581).
Assay of SEP or NEP Peptidase Activity
The peptidase activity of SEP or NEP is measured by monitoring its ability to proteolyse the synthetic peptide substrate Rhodamine green-Gly-Gly-dPhe-Leu-Arg-Arg-Val-Cys(QSY7)-βAla-NH2:
Reagents for the assay are first prepared as follows:
A substrate solution is made up by diluting a 2 mM/100% DMSO Rhodamine green-Gly-Gly-dPhe-Leu-Arg-Arg-Val-Cys(QSY7)-βAla-NH2 stock solution in 50 mM HEPES buffer pH7.4 (Sigma, UK) at a concentration of 2 μM.
An aliquot of SEP or NEP enzyme described above is thawed then diluted in 50 mM HEPES, pH7.4 containing 1 EDTA free protease inhibitor cocktail tablet (Roche Diagnostics, UK) per 25 ml. […]
(§1) In a black 384 well microtitre plate, 15 μl of enzyme solution is added to 15 μl of 4% DMSO solution. […] Following incubation a fluorescence measurement is taken (Ex485/Em538). BMG galaxy fluorescence reader (BMG Lab technologies, Offenberg, Germany).
(§2) The proteolytic activity of the enzyme corresponds to the fluorescence of the sample minus the fluorescence of the non-specific background blank.
(§3) A fluorescence measurement taken from 60 μl of product in a well on an identical microtitre plate may be taken. […]

[2] = molecular target: T2, Recombinant SEP (soluble secreted endopeptidase) (Homo sapiens, UniProt Q495T6); assay: Assay of SEP peptidase activity (fluorogenic peptide substrate), IC50 determination; assay type: biochemical; details: ratio of SEP to NEP inhibition
T2 construct: made in house
T2 sequence (Q495T6 75-779 limits assumed): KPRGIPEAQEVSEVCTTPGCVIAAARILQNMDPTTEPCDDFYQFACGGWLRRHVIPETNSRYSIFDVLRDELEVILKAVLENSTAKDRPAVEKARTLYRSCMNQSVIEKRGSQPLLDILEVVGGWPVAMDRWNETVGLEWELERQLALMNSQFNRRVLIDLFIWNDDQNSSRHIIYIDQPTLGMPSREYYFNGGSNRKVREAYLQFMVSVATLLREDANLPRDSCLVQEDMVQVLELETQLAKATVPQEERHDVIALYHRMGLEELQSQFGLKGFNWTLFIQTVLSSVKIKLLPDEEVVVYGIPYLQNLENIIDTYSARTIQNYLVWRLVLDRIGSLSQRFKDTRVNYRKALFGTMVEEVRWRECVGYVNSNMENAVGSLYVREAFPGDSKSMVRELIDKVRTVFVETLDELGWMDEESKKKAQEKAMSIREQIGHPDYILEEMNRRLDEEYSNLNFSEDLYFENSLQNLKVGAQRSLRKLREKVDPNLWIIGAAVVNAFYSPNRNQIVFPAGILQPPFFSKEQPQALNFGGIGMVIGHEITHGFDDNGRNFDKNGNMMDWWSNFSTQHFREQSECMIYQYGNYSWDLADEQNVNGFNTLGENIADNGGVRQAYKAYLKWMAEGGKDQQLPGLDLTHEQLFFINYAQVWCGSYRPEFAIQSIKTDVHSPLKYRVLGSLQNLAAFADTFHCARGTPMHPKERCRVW
Protocol: Recombinant SEP enzyme is produced using one of two alternative methods:
Method 1: A culture of Chinese Hamster Ovary (CHO) cells is transfected with the plasmid NCIMB deposit number 41110 using the lipofectamine method as described in the lipofectamine reagent protocol (Invitrogen Ltd, Paisley, UK). The cell media is harvested at 24 or 48 hours post transfection, and cleared of cell debris by centrifugation at 3000 g for 5 min. The media is then dialyzed overnight at 4° C. against 50 mM HEPES pH7.4/10% glycerol, using a “slide a lyser” from Pierce and Warner, Chester UK. The dialyzed sample is then frozen in aliquots and stored under liquid nitrogen. […]
The peptidase activity of SEP or NEP is measured by monitoring its ability to proteolyse the synthetic peptide substrate Rhodamine green-Gly-Gly-dPhe-Leu-Arg-Arg-Val-Cys(QSY7)-βAla-NH2: […]
as §1, §2, §3

Row | Structure (SMILES) | melting point [°C] | IC50 [1] [nM] | selectivity for NEP over SEP [2] [fold]
1 | CCc1nc2ccc(CCCNC(=O)C3(CCC(=O)O)CCCC3)cc2s1 [Example 2, 3-(1-{[3-(2-ethyl-1,3-benzothiazol-6-yl)propyl]carbamoyl}cyclopentyl)propanoic acid] | 127.5 to 129.5 |  | 
2 | Cc1nc2ccc(CCCNC(=O)C3(C[C@@H](C)C(=O)O)CCCC3)cc2s1 [Example 1, (R)-2-Methyl-3-(1-{[3-(2-methyl-1,3-benzothiazol-6-yl)propyl]carbamoyl}cyclopentyl)propanoic acid] | 105 to 106 | 1 | 1900
